Source: a melting point compilation (Tetko et al.)

details: a range is the spread between reports

First: CC1(C(=O)O)CCC(C(=O)O)C1(C)C (stereo not drawn)
Second: C=C(CC)C(=O)c1ccc(OCC(=O)O)c(Cl)c1Cl
The melting point of the first is higher: 187 to 189 °C for the first, 121 to 122 °C for the second.

Compared with `CCC(=O)c1ccccc1`, `CC(=O)c1ccccc1` is higher in melting point: 18 to 19 °C for the first, 19 to 20.5 °C for the second.

Compared with `CC(=O)c1cc(C)c(C)cc1C`, `Cc1cc(C)cc(C(C)(C)C)c1` is lower in melting point: 10 to 10.5 °C for the first, -22 to -18 °C for the second.

First: O=C1c2ccccc2CCc2ccccc21
Second: c1ccc(Oc2ccccc2)cc1
The melting point of the first is higher: 30 to 33 °C for the first, 26.8 to 28 °C for the second.

First: Nc1ccc(Br)cc1Br
Second: Cc1ccc(N)c(N)c1
The melting point of the first is lower: 78 to 80 °C for the first, 88 to 89.5 °C for the second.

Compared with `Cc1ccc2sc(C)nc2c1`, `Cc1cc(O)ccc1O` is higher in melting point: 38 to 40 °C for the first, 128 to 129 °C for the second.

First: Oc1ccccc1
Second: O=C(O)c1ccccc1F
The melting point of the first is lower: 40.9 to 42 °C for the first, 124 to 126 °C for the second.

First: NCCCCNCCCN
Second: NCCCNCCCCNCCCN
The melting point of the first is lower: 23.5 to 24 °C for the first, 28 to 29 °C for the second.

First: CCc1ccc(N)cc1
Second: CCc1ccc(Br)cc1
The melting point of the first is higher: -5 to -4.8 °C for the first, -43.5 to -43 °C for the second.

First: CCC(CC)C(C)C
Second: CCC(C)CC(O)CC (stereo not drawn)
The melting point of the first is lower: -115 °C for the first, -91.2 to -91 °C for the second.

First: CCn1cc(C(=O)O)c(=O)c2cc(F)c(N3CCNC(C)C3)c(F)c21 (stereo not drawn)
Second: CC12CCC3c4ccc(O)cc4CCC3C1CCC2=O (stereo not drawn)
The melting point of the first is lower: 240 °C for the first, 255 to 259 °C for the second.

First: CC12CCC3c4ccc(O)cc4CCC3C1CC(O)C2O (stereo not drawn)
Second: Oc1ccc2c(c1)CCC2
The melting point of the first is higher: 281 to 282 °C for the first, 53 to 58 °C for the second.

Compared with `COC(=O)C(Cl)Cl`, `CC(=O)Cl` is lower in melting point: -52 to -51.9 °C for the first, -113 to -112 °C for the second.

First: COc1ccc(N)c([N+](=O)[O-])c1
Second: Nc1cccc([N+](=O)[O-])c1
The melting point of the first is higher: 124 to 127 °C for the first, 112 to 114 °C for the second.

Compared with `Cc1c(Br)cc(Br)cc1Br`, `Brc1cc(Br)cc(Br)c1` is higher in melting point: 69 to 70 °C for the first, 122 to 124 °C for the second.

First: CC#CC#CC
Second: C/C=C\CCC
The melting point of the first is higher: 67 to 67.8 °C for the first, -141 °C for the second.

First: Oc1ccccc1C=Nc1ccccc1
Second: O=C(O)c1cc(-c2ccccc2)nc2ccccc12
The melting point of the first is lower: 47.5 to 51 °C for the first, 214 to 215 °C for the second.

First: CC1=C(C)CCC1
Second: CN1CC=C(c2ccccc2)CC1
The melting point of the first is lower: -90.4 to -90 °C for the first, 38.5 to 40 °C for the second.

Compared with `CN(C)c1ccc(N(C)C)cc1`, `CN(C)c1ccc(C(=O)c2ccc(N(C)C)cc2)cc1` is higher in melting point: 50 to 51 °C for the first, 175 to 179 °C for the second.

First: Nc1c(Cl)cc(Cl)cc1Cl
Second: Clc1cc(Cl)c(Cl)c(Cl)c1
The melting point of the first is higher: 74 to 78.5 °C for the first, 51.5 to 55 °C for the second.

First: CC(=O)NCCCCCC(=O)O
Second: O=C(O)CCCCCCCCCCCCCCCO
The melting point of the first is higher: 104 °C for the first, 98 to 99 °C for the second.

Compared with `ClCc1ccc(Cl)cc1`, `OCc1ccc(Cl)cc1` is higher in melting point: 28 to 31 °C for the first, 70 to 75 °C for the second.

Going from `CSC(C)C` to `CC/C=C/C(C)C`, the melting point falls from -102 °C to -142 °C.

Compared with `C=CCCCCCCCC`, `C=CCCCCCCCCCC` is higher in melting point: -66.3 to -66 °C for the first, -37 to -35 °C for the second.

First: O=[N+]([O-])c1ccc(I)cc1
Second: Brc1ccc(I)cc1
The melting point of the first is higher: 173 to 176 °C for the first, 91 to 92 °C for the second.

Compared with `CC(=O)c1ccncc1`, `CC(=O)c1cc2ccccc2o1` is higher in melting point: 15 to 16 °C for the first, 71 to 76 °C for the second.

First: Nc1cccc(Cl)c1Cl
Second: Nc1cccc(CO)c1
The melting point of the first is lower: 22 to 24 °C for the first, 93 to 95 °C for the second.

First: Clc1ccc(Cl)nn1
Second: Oc1c(Cl)cc(Cl)c2cccnc12
The melting point of the first is lower: 67.5 to 68 °C for the first, 180 to 181 °C for the second.

Compared with `CCCCCCCCI`, `CCCCCCCCO` is higher in melting point: -46 to -44 °C for the first, -16 to -15 °C for the second.

Compared with `CC(C)(C)c1cc(C=O)cc(C(C)(C)C)c1O`, `CC(C)(C)C(C)(C)C` is lower in melting point: 186 to 188 °C for the first, 101 °C for the second.

First: CCOC(=O)C(O)(c1ccc(Cl)cc1)c1ccc(Cl)cc1
Second: COc1cccc(C(=O)NN)c1
The melting point of the first is lower: 36 to 37 °C for the first, 92 to 94 °C for the second.

Compared with `O=[N+]([O-])c1cccc2cccnc12`, `CCc1ccccn1` is lower in melting point: 88 to 90 °C for the first, -63.1 to -63 °C for the second.

First: CCCCCC(C)C
Second: CCCCCl
The melting point of the first is higher: -109 to -105 °C for the first, -123 °C for the second.

Compared with `Nc1cc([N+](=O)[O-])cc([N+](=O)[O-])c1`, `NC(=O)c1cccc(N)c1` is lower in melting point: 161 to 163 °C for the first, 113 to 116 °C for the second.

First: Fc1cc(F)c(F)cc1F
Second: Cc1occc(=O)c1O
The melting point of the first is lower: 4 to 4.5 °C for the first, 162 to 163 °C for the second.

Compared with `CCCCOC=O`, `CCOC=C(C#N)C#N` is higher in melting point: -92 to -91.5 °C for the first, 65 to 66 °C for the second.

First: OCCOCCO
Second: OCCNCCO
The melting point of the first is lower: -10.4 to -10 °C for the first, 28 to 29 °C for the second.

Compared with `COc1ccc(Br)cc1`, `Cc1cc(NS(=O)(=O)c2ccc(N)cc2)no1` is higher in melting point: 10 to 13.5 °C for the first, 167 to 172 °C for the second.

Compared with `O=C(O)CCCl`, `CCN(CC)c1ccccc1` is lower in melting point: 39 to 41 °C for the first, -38.8 to -38 °C for the second.

First: Nc1cccnc1
Second: c1cnccn1
The melting point of the first is higher: 61 to 64.5 °C for the first, 53 to 55 °C for the second.

First: O=S(=O)(Cc1ccccc1)Cc1ccccc1
Second: O=c1c(-c2ccc(O)cc2)coc2cc(O)cc(O)c12
The melting point of the first is lower: 151 to 152 °C for the first, 300 to 302 °C for the second.

For `BrCCCCBr`, the melting point was -20 to -16.5 °C.
